Patent publication US20250101041A1, “POSITIVE ALLOSTERIC MODULATORS OF THE MUSCARINIC ACETYLCHOLINE RECEPTOR M4” (Vanderbilt University, priority 2022, published 2025)
pEC50: −log10 of the molar value.

Target: T1, human mAChR M4 (Homo sapiens, UniProt P08173)
T1 construct: expressed in transfected cells; host or cells: CHO-K1 (American Type Culture Collection), stably expressing hM4 and Gqi5
T1 sequence (P08173 1-479): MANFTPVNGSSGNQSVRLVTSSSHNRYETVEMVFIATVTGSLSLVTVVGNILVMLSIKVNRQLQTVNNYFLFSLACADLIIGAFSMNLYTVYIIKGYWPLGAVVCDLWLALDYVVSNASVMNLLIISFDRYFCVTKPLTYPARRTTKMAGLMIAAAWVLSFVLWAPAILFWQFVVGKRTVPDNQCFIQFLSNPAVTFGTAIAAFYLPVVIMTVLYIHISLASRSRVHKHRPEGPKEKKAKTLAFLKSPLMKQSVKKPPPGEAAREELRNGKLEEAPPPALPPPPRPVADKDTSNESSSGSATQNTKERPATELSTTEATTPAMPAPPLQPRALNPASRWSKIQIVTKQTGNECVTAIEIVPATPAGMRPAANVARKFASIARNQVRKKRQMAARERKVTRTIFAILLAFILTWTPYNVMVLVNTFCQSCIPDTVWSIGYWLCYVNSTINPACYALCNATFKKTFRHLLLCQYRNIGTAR
Assay: mAChR M4 cell-based functional assay: calcium mobilization (Fluo-4, FDSS), potentiation of EC20 acetylcholine response in hM4-Gqi5 CHO-K1 cells
Details: human M4; for Emax at 30 µM: CHO-K1, % ACh maximum at 30 μM; for pEC50: potentiation of EC20 acetylcholine response, calcium mobilization
Summary of the method: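 CHO-K1 cells stably co-expressing human M4 and chimeric Gqi5, loaded with Fluo-4 AM (50 min, 37 °C). Compounds in 11-point 1:3 series added first; EC20 acetylcholine added at 144 s and again at 230 s. Calcium read on FDSS at 1 Hz; EC50 and Emax from four-parameter logistic fit of potentiated EC20 response.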

| Emax at 30 µM [%] | pEC50 | Structure (SMILES) |
| --- | --- | --- |
| 88 | 6.88 | Cc1c(N2CCc3ncc(-c4cnn(C)c4C)cc3C2)nn2c(=O)ccnc2c1C [Compound 1-338, 7-(3-(1,5-dimethyl-1H-pyrazol-4-yl)-7,8-dihydro-1,6-naphthyridin-6(5H)-yl)-8,9-dimethyl-4H-pyrimido[1,2-b]pyridazin-4-one] |
| 77 | 6.64 | Cc1c(N2CCc3ncc(-c4cnn(C(F)F)c4)cc3C2)nn2c(=O)ccnc2c1C [Compound 1-339, 7-(3-(1-(difluoromethyl)-1H-pyrazol-4-yl)-7,8-dihydro-1,6-naphthyridin-6(5H)-yl)-8,9-dimethyl-4H-pyrimido[1,2-b]pyridazin-4-one] |
| 48 | 6.30 | Cc1c(N2CCc3ncc(-c4ccccc4C(C)C)cc3C2)nn2c(=O)ccnc2c1C [Compound 1-340, 7-(3-(2-isopropylphenyl)-7,8-dihydro-1,6-naphthyridin-6(5H)-yl)-8,9-dimethyl-4H-pyrimido[1,2-b]pyridazin-4-one] |
| 75 | 6.17 | Cc1cc(F)c(F)c(-c2cnc3c(c2)CN(c2nn4c(=O)ccnc4c(C)c2C)CC3)c1 [Compound 1-341, 7-(3-(2,3-difluoro-5-methylphenyl)-7,8-dihydro-1,6-naphthyridin-6(5H)-yl)-8,9-dimethyl-4H-pyrimido[1,2-b]pyridazin-4-one] |
| 72 | 6.69 | CCc1ccccc1-c1cnc2c(c1)CN(c1nn3c(=O)ccnc3c(C)c1C)CC2 [Compound 1-342, 7-(3-(2-ethylphenyl)-7,8-dihydro-1,6-naphthyridin-6(5H)-yl)-8,9-dimethyl-4H-pyrimido[1,2-b]pyridazin-4-one] |
| 77 | 6.40 | Cc1c(N2CCc3ncc(-c4ccccc4F)cc3C2)nn2c(=O)ccnc2c1C [Compound 1-343, 7-(3-(2-fluorophenyl)-7,8-dihydro-1,6-naphthyridin-6(5H)-yl)-8,9-dimethyl-4H-pyrimido[1,2-b]pyridazin-4-one] |
| 72 | 6.18 | COc1ccccc1-c1cnc2c(c1)CN(c1nn3c(=O)ccnc3c(C)c1C)CC2 [Compound 1-344, 7-(3-(2-methoxyphenyl)-7,8-dihydro-1,6-naphthyridin-6(5H)-yl)-8,9-dimethyl-4H-pyrimido[1,2-b]pyridazin-4-one] |

Second part, the compound before the results:

| Structure (SMILES) | Emax at 30 µM [%] | pEC50 |
| --- | --- | --- |
| COCc1cc(=O)n2nc(N3CCc4ncc(-c5cncnc5)cc4C3)c(C)cc2n1 [Compound 1-324, 2-(methoxymethyl)-8-methyl-7-(3-(pyrimidin-5-yl)-7,8-dihydro-1,6-naphthyridin-6(5H)-yl)-4H-pyrimido[1,2-b] pyridazin-4-one] | 59 | – |
| Cc1cc2nccc(=O)n2nc1N1CCc2ncc(-c3cnn4c3COCC4)cc2C1 [Compound 1-325, 7-(3-(6,7-dihydro-4H-pyrazolo[5,1-c][1,4]oxazin-3-yl)-7,8-dihydro-1,6-naphthyridin-6(5H)-yl)-8-methyl-4H-pyrimido[1,2-b]pyridazin-4-one] | 68 | 6.04 |
| Cc1cc2nccc(=O)n2nc1N1CCc2ncc(-c3cnc(F)c(Cl)c3)cc2C1 [Compound 1-326, 7-(3-(5-chloro-6-fluoropyridin-3-yl)-7,8-dihydro-1,6-naphthyridin-6(5H)-yl)-8-methyl-4H-pyrimido[1,2-b]pyridazin-4-one] | 49 | 5.83 |
| COCc1cc(=O)n2nc(N3CCc4ncc(-c5cnc(F)cc5C)cc4C3)c(C)cc2n1 [Compound 1-327, 7-(3-(6-fluoro-4-methylpyridin-3-yl)-7,8-dihydro-1,6-naphthyridin-6(5H)-yl)-2-(methoxymethyl)-8-methyl-4H-pyrimido[1,2-b]pyridazin-4-one] | 71 | 6.51 |
| COCc1cc(=O)n2nc(N3CCc4ncc(-c5cc(F)ncc5C)cc4C3)c(C)cc2n1 [Compound 1-328, 7-(3-(2-fluoro-5-methylpyridin-4-yl)-7,8-dihydro-1,6-naphthyridin-6(5H)-yl)-2-(methoxymethyl)-8-methyl-4H-pyrimido[1,2-b] pyridazin-4-one] | 68 | 6.32 |
| Cc1cc2nccc(=O)n2nc1N1CCc2ncc(-c3cnc(Cl)cc3C(F)F)cc2C1 [Compound 1-329, 7-(3-(6-chloro-4-(difluoromethyl)pyridin-3-yl)-7,8-dihydro-1,6-naphthyridin-6(5H)-yl)-8-methyl-4H-pyrimido[1,2-b]pyridazin-4-one] | 78 | 5.98 |
| COCc1cc(=O)n2nc(N3CCc4ncc(-c5ccc(F)c(F)c5)cc4C3)c(C)cc2n1 [Compound 1-330, 7-(3-(3,4-difluorophenyl)-7,8-dihydro-1,6-naphthyridin-6(5H)-yl)-2-(methoxymethyl)-8-methyl-4H-pyrimido[1,2-b] pyridazin-4-one] | 68 | 6.32 |
| Cc1cc2nccc(=O)n2nc1N1CCc2ncc(-c3cnc(F)c(F)c3)cc2C1 [Compound 1-331, 7-(3-(5,6-difluoropyridin-3-yl)-7,8-dihydro-1,6-naphthyridin-6(5H)-yl)-8-methyl-4H-pyrimido [1,2-b]pyridazin-4-one] | 53 | 5.90 |
| COCc1cc(=O)n2nc(N3CCc4ncc(-c5cc(F)ccc5C)cc4C3)c(C)cc2n1 [Compound 1-332, 7-(3-(5-fluoro-2-methylphenyl)-7,8-dihydro-1,6-naphthyridin-6(5H)-yl)-2-(methoxymethyl)-8-methyl-4H-pyrimido[1,2-b] pyridazin-4-one] | 67 | 6.61 |
| Cc1cc(Cl)ncc1-c1cnc2c(c1)CN(c1nn3c(=O)ccnc3cc1C)CC2 [Compound 1-333, 7-(3-(6-chloro-4-methylpyridin-3-yl)-7,8-dihydro-1,6-naphthyridin-6(5H)-yl)-8-methyl-4H-pyrimido[1,2-b]pyridazin-4-one] | 69 | 6.61 |
| Cc1cc2nccc(=O)n2nc1N1CCc2ncc(-c3ccc(Cl)nn3)cc2C1 [Compound 1-334, 7-(3-(6-chloropyridazin-3-yl)-7,8-dihydro-1,6-naphthyridin-6(5H)-yl)-8-methyl-4H-pyrimido [1,2-b]pyridazin-4-one] | 45 | 5.91 |
| COCc1cc(=O)n2nc(N3CCc4ncc(-c5cc(F)c(F)cc5F)cc4C3)c(C)cc2n1 [Compound 1-335, 2-(methoxymethyl)-8-methyl-7-(3-(2,4,5-trifluorophenyl)-7,8-dihydro-1,6-naphthyridin-6(5H)-yl)-4H-pyrimido[1,2-b]pyridazin-4-one] | 68 | 6.24 |
| COCc1cc(=O)n2nc(N3CCc4ncc(-c5cc(F)ccc5F)cc4C3)c(C)cc2n1 [Compound 1-336, 7-(3-(2,5-difluorophenyl)-7,8-dihydro-1,6-naphthyridin-6(5H)-yl)-2-(methoxymethyl)-8-methyl-4H-pyrimido[1,2-b] pyridazin-4-one] | 66 | 6.45 |
| COCc1cc(=O)n2nc(N3CCc4ncc(-c5ccccc5C)cc4C3)c(C)cc2n1 [Compound 1-337, 2-(methoxymethyl)-8-methyl-7-(3-(o-tolyl)-7,8-dihydro-1,6-naphthyridin-6(5H)-yl)-4H-pyrimido[1,2-b]pyridazin-4-one] | 76 | 6.48 |
